According to ChEMBL document CHEMBL1201862, “PubChem BioAssay data set” (2004):
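How tested: cells in 96-well plates exposed to compound for 48 hours at five concentrations. GI50 = concentration required for 50% inhibition of growth.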 Active and inactive are the calls of the source. Cut-off read from the data, not from the text of the source: active = GI50 up to about 1.1 µM and inactive = higher.

What was measured:
Assay in all cases: NCI anticancer screen, dose series, 48 h
SF-295 = system: SF-295
SN12C = system: SN12C
K562 = system: K562
MOLT-4 = system: MOLT-4
RXF 631 = system: RXF 631
SK-OV-3 = system: SK-OV-3
HOP-62 = system: HOP-62
KM12 = system: KM12
LXFL 529 = system: LXFL 529
SNB-78 = system: SNB-78
Malme-3M = system: Malme-3M
UO-31 = system: UO-31
HT-29 = system: HT-29
KM-20L2 = system: KM-20L2
786-0 = system: 786-0
NCI-H226 = system: NCI-H226
SNB-19 = system: SNB-19
CCRF-CEM = system: CCRF-CEM
SF-539 = system: SF-539
SF-268 = system: SF-268
OVCAR-4 = system: OVCAR-4
UACC-257 = system: UACC-257
HL-60 = system: HL-60
OVCAR-8 = system: OVCAR-8
ACHN = system: ACHN
CAKI-1 = system: CAKI-1
DMS-273 = system: DMS-273
A498 = system: A498
TK-10 = system: TK-10
OVCAR-5 = system: OVCAR-5
IGROV-1 = system: IGROV-1
UACC-62 = system: UACC-62
XF498 = system: XF498
HOP-92 = system: HOP-92
RXF 393 = system: RXF 393
HCT-116 = system: HCT-116
OVCAR-3 = system: OVCAR-3
SNB-75 = system: SNB-75
DLD-1 = system: DLD-1
NCI-H23 = system: NCI-H23
SK-MEL-2 = system: SK-MEL-2
SW-620 = system: SW-620
EKVX = system: EKVX
M14 = system: M14
NCI-H522 = system: NCI-H522
A549 = system: A549
SR = system: SR
U-251 = system: U-251
RPMI-8226 = system: RPMI-8226
LOX IMVI = system: LOX IMVI
SK-MEL-28 = system: SK-MEL-28
M19-MEL = system: M19-MEL
HCC 2998 = system: HCC 2998
SK-MEL-5 = system: SK-MEL-5
HOP-18 = system: HOP-18
NCI-H460 = system: NCI-H460
DMS-114 = system: DMS-114
COLO 205 = system: COLO 205
HCT-15 = system: HCT-15

FC(F)(F)c1cc(C2SCc3nc4ccccc4n32)cc(C(F)(F)F)c1 (stereo unspecified)
GI50 (SF-295): 5 µM (inactive)
GI50 (SN12C): 2.9 µM (inactive)
GI50 (K562): 2.97 µM (inactive)
GI50 (MOLT-4): 2.97 µM (inactive)
GI50 (RXF 631): 10.6 µM (inactive)
GI50 (SK-OV-3): 20.5 µM (inactive)
GI50 (HOP-62): 5.5 µM (inactive)
GI50 (KM12): 4.68 µM (inactive)
GI50 (LXFL 529): > 100 µM (inactive)
GI50 (SNB-78): 36.7 µM (inactive)
GI50 (Malme-3M): 2.92 µM (inactive)
GI50 (UO-31): > 100 µM (inactive)
GI50 (HT-29): 3.46 µM (inactive)
GI50 (KM-20L2): 3.37 µM (inactive)
GI50 (786-0): 11.4 µM (inactive)
GI50 (NCI-H226): 6.41 µM (inactive)
GI50 (SNB-19): 76 µM (inactive)
GI50 (CCRF-CEM): 4.51 µM (inactive)
GI50 (SF-539): 24.6 µM (inactive)
GI50 (SF-268): 44.9 µM (inactive)
GI50 (OVCAR-4): > 100 µM (inactive)
GI50 (UACC-257): > 100 µM (inactive)
GI50 (HL-60): 3.87 µM (inactive)
GI50 (OVCAR-8): 10.3 µM (inactive)
GI50 (ACHN): > 100 µM (inactive)
GI50 (CAKI-1): 4.24 µM (inactive)
GI50 (DMS-273): 3.65 µM (inactive)
GI50 (A498): > 100 µM (inactive)
GI50 (TK-10): > 100 µM (inactive)
GI50 (OVCAR-5): > 100 µM (inactive)
GI50 (IGROV-1): 8.13 µM (inactive)
GI50 (UACC-62): 3.87 µM (inactive)
GI50 (XF498): 8.45 µM (inactive)
GI50 (HOP-92): 20.4 µM (inactive)
GI50 (RXF 393): 14.8 µM (inactive)

Cc1ccccc1NC(=O)C1C(=O)N(c2ccccc2C)C(=O)/C1=N\NC(N)=S (stereo unspecified)
GI50 (SF-295): > 100 µM (inactive)
GI50 (SN12C): > 100 µM (inactive)
GI50 (HCT-116): > 100 µM (inactive)
GI50 (K562): > 100 µM (inactive)
GI50 (OVCAR-3): > 100 µM (inactive)
GI50 (SNB-75): > 100 µM (inactive)
GI50 (DLD-1): > 100 µM (inactive)
GI50 (MOLT-4): > 100 µM (inactive)
GI50 (RXF 631): > 100 µM (inactive)
GI50 (NCI-H23): > 100 µM (inactive)
GI50 (SK-OV-3): > 100 µM (inactive)
GI50 (SK-MEL-2): > 100 µM (inactive)
GI50 (SW-620): > 100 µM (inactive)
GI50 (EKVX): > 100 µM (inactive)
GI50 (KM12): > 100 µM (inactive)
GI50 (LXFL 529): > 100 µM (inactive)
GI50 (M14): > 100 µM (inactive)
GI50 (Malme-3M): > 100 µM (inactive)
GI50 (UO-31): > 100 µM (inactive)
GI50 (HT-29): > 100 µM (inactive)
GI50 (KM-20L2): > 100 µM (inactive)
GI50 (NCI-H522): > 100 µM (inactive)
GI50 (786-0): > 100 µM (inactive)
GI50 (NCI-H226): > 100 µM (inactive)
GI50 (SNB-19): > 100 µM (inactive)
GI50 (CCRF-CEM): > 100 µM (inactive)
GI50 (A549): > 100 µM (inactive)
GI50 (SF-539): > 100 µM (inactive)
GI50 (SF-268): > 100 µM (inactive)
GI50 (SR): > 100 µM (inactive)
GI50 (UACC-257): > 100 µM (inactive)
GI50 (HL-60): > 100 µM (inactive)
GI50 (U-251): > 100 µM (inactive)
GI50 (ACHN): > 100 µM (inactive)
GI50 (CAKI-1): > 100 µM (inactive)
GI50 (DMS-273): > 100 µM (inactive)
GI50 (TK-10): > 100 µM (inactive)
GI50 (IGROV-1): > 100 µM (inactive)
GI50 (RPMI-8226): > 100 µM (inactive)
GI50 (LOX IMVI): > 100 µM (inactive)
GI50 (UACC-62): > 100 µM (inactive)
GI50 (XF498): > 100 µM (inactive)
GI50 (HOP-92): > 100 µM (inactive)
GI50 (SK-MEL-28): > 100 µM (inactive)

O=C1C=CC(S(=O)(=O)C2=C/C(=C/Nc3ccc(Cl)cc3)C(=O)C=C2)=C/C1=C/Nc1ccc(Cl)cc1
GI50 (SF-295): > 100 µM (inactive)
GI50 (SN12C): > 100 µM (inactive)
GI50 (HCT-116): > 100 µM (inactive)
GI50 (K562): > 100 µM (inactive)
GI50 (M19-MEL): > 100 µM (inactive)
GI50 (OVCAR-3): > 100 µM (inactive)
GI50 (SNB-75): 47.6 µM (inactive)
GI50 (DLD-1): > 100 µM (inactive)
GI50 (MOLT-4): > 100 µM (inactive)
GI50 (RXF 631): > 100 µM (inactive)
GI50 (NCI-H23): > 100 µM (inactive)
GI50 (SK-OV-3): > 100 µM (inactive)
GI50 (HCC 2998): > 100 µM (inactive)
GI50 (SK-MEL-2): > 100 µM (inactive)
GI50 (SW-620): > 100 µM (inactive)
GI50 (EKVX): > 100 µM (inactive)
GI50 (HOP-62): > 100 µM (inactive)
GI50 (SK-MEL-5): > 100 µM (inactive)
GI50 (KM12): > 100 µM (inactive)
GI50 (LXFL 529): > 100 µM (inactive)
GI50 (M14): > 100 µM (inactive)
GI50 (Malme-3M): > 100 µM (inactive)
GI50 (UO-31): > 100 µM (inactive)
GI50 (HT-29): > 100 µM (inactive)
GI50 (HOP-18): > 100 µM (inactive)
GI50 (KM-20L2): > 100 µM (inactive)
GI50 (NCI-H522): > 100 µM (inactive)
GI50 (786-0): > 100 µM (inactive)
GI50 (NCI-H460): > 100 µM (inactive)
GI50 (NCI-H226): > 100 µM (inactive)
GI50 (SNB-19): > 100 µM (inactive)
GI50 (DMS-114): > 100 µM (inactive)
GI50 (CCRF-CEM): > 100 µM (inactive)
GI50 (A549): > 100 µM (inactive)
GI50 (SF-539): > 100 µM (inactive)
GI50 (SF-268): > 100 µM (inactive)
GI50 (SR): > 100 µM (inactive)
GI50 (OVCAR-4): > 100 µM (inactive)
GI50 (UACC-257): > 100 µM (inactive)
GI50 (HL-60): > 100 µM (inactive)
GI50 (U-251): > 100 µM (inactive)
GI50 (OVCAR-8): > 100 µM (inactive)
GI50 (ACHN): > 100 µM (inactive)
GI50 (CAKI-1): > 100 µM (inactive)
GI50 (DMS-273): > 100 µM (inactive)
GI50 (COLO 205): > 100 µM (inactive)
GI50 (A498): > 100 µM (inactive)
GI50 (TK-10): > 100 µM (inactive)
GI50 (OVCAR-5): > 100 µM (inactive)
GI50 (IGROV-1): > 100 µM (inactive)
GI50 (RPMI-8226): > 100 µM (inactive)
GI50 (LOX IMVI): > 100 µM (inactive)
GI50 (UACC-62): > 100 µM (inactive)
GI50 (HOP-92): > 100 µM (inactive)
GI50 (RXF 393): > 100 µM (inactive)
GI50 (SK-MEL-28): > 100 µM (inactive)

Fc1ccc(C2SCc3nc4ccccc4n32)c(F)c1 (stereo unspecified)
GI50 (SF-295): 39.4 µM (inactive)
GI50 (SN12C): > 100 µM (inactive)
GI50 (HCT-116): 54 µM (inactive)
GI50 (K562): 34.9 µM (inactive)
GI50 (M19-MEL): 65.5 µM (inactive)
GI50 (OVCAR-3): 51.1 µM (inactive)
GI50 (SNB-75): > 100 µM (inactive)
GI50 (DLD-1): 67.6 µM (inactive)
GI50 (MOLT-4): 30.5 µM (inactive)
GI50 (RXF 631): 34.5 µM (inactive)
GI50 (NCI-H23): 46.3 µM (inactive)
GI50 (SK-OV-3): > 100 µM (inactive)
GI50 (HCC 2998): 98.6 µM (inactive)
GI50 (SK-MEL-2): 71.9 µM (inactive)
GI50 (SW-620): > 100 µM (inactive)
GI50 (EKVX): > 100 µM (inactive)
GI50 (HOP-62): > 100 µM (inactive)
GI50 (SK-MEL-5): 32.1 µM (inactive)
GI50 (KM12): 46.3 µM (inactive)
GI50 (SNB-78): 38.1 µM (inactive)
GI50 (M14): 73.1 µM (inactive)
GI50 (Malme-3M): 80.4 µM (inactive)
GI50 (UO-31): 42.3 µM (inactive)
GI50 (HT-29): 81.1 µM (inactive)
GI50 (HOP-18): > 100 µM (inactive)
GI50 (KM-20L2): > 100 µM (inactive)
GI50 (NCI-H522): 30.1 µM (inactive)
GI50 (786-0): > 100 µM (inactive)
GI50 (NCI-H460): 54 µM (inactive)
GI50 (NCI-H226): > 100 µM (inactive)
GI50 (SNB-19): > 100 µM (inactive)
GI50 (DMS-114): 31.8 µM (inactive)
GI50 (CCRF-CEM): 51.6 µM (inactive)
GI50 (A549): 83.8 µM (inactive)
GI50 (SF-539): > 100 µM (inactive)
GI50 (SF-268): > 100 µM (inactive)
GI50 (SR): 34.6 µM (inactive)
GI50 (OVCAR-4): 95.7 µM (inactive)
GI50 (UACC-257): 34.4 µM (inactive)
GI50 (HL-60): 22 µM (inactive)
GI50 (U-251): 75.5 µM (inactive)
GI50 (OVCAR-8): 79.3 µM (inactive)
GI50 (ACHN): 82.4 µM (inactive)
GI50 (CAKI-1): > 100 µM (inactive)
GI50 (DMS-273): 38 µM (inactive)
GI50 (COLO 205): > 100 µM (inactive)
GI50 (A498): > 100 µM (inactive)
GI50 (TK-10): 32.5 µM (inactive)
GI50 (OVCAR-5): 67.6 µM (inactive)
GI50 (IGROV-1): > 100 µM (inactive)
GI50 (RPMI-8226): 37.9 µM (inactive)
GI50 (LOX IMVI): 81.5 µM (inactive)
GI50 (UACC-62): 64.7 µM (inactive)
GI50 (HCT-15): 49.4 µM
GI50 (HOP-92): 29.8 µM (inactive)
GI50 (RXF 393): 98.4 µM (inactive)
